pIC50: −log10 of the molar value.
The compounds below were run against TARP γ8 dependent AMPA receptor (GRIA1o-CACNG8 fusion construct) (Homo sapiens (Human), UniProt P42261+Q8WXS5) (assay: Calcium flux assay (FLIPR), inhibition of glutamate response of GluA1o-γ8 channel). Settings: HEK293 cells stably expressing GRIA1o-CACNG8 fusion; calcium flux after 15 μM glutamate; negative log of the IC50 in molar.
Assay type: cell-based
Procedure, shortened: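 HEK293 clonal line stably expressing a GRIA1o-CACNG8 fusion (1:1 GluA1o:γ8), loaded with Calcium-5/6 dye plus compound in HEPES buffer pH 7.4. FLIPR calcium flux read after 15 μM glutamate; normalized to no-compound and 10 μM CP465022 controls. Four-parameter logistic fit gives IC50, reported as pIC50.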

TARP γ8 dependent AMPA receptor (GRIA1o-CACNG8 fusion construct), sequence (P42261 other isoform, or with tags, fused parts or gaps): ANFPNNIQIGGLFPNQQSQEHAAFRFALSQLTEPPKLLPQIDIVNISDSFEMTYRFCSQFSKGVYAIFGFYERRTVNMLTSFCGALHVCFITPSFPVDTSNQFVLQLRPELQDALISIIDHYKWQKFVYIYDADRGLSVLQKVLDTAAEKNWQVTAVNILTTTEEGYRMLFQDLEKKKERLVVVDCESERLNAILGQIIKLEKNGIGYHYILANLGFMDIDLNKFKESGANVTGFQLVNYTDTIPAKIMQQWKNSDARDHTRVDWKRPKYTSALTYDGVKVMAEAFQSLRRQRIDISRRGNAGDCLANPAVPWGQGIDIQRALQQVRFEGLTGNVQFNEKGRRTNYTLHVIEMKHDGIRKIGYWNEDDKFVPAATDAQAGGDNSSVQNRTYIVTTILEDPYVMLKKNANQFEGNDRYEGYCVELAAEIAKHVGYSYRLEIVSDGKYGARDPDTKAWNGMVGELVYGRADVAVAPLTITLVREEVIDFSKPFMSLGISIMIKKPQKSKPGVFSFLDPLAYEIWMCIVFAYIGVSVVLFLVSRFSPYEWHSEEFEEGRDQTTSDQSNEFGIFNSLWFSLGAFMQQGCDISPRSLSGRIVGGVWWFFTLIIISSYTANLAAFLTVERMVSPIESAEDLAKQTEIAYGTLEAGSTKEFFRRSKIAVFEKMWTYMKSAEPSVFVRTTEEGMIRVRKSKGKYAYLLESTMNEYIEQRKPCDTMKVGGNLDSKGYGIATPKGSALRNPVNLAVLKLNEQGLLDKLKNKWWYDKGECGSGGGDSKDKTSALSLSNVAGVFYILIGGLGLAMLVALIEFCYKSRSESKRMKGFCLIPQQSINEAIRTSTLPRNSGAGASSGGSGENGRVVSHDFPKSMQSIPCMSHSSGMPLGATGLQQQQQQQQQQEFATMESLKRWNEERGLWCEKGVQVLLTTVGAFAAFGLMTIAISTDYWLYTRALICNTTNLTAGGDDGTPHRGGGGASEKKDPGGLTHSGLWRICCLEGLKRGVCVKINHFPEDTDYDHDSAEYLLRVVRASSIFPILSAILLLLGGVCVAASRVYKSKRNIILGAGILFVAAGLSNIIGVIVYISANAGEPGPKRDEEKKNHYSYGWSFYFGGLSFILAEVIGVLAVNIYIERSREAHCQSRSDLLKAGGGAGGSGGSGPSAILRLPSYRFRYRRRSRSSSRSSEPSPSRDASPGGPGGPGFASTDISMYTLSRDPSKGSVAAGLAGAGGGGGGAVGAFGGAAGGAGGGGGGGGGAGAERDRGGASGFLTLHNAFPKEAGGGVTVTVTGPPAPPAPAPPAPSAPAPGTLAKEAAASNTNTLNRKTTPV

Structure (SMILES)	pIC50
FC(F)c1ccc2cc(C(F)(F)F)nn2c1-c1cc(Cl)c2[nH]ncc2c1 [Example 120, 7-(7-Chloro-1H-indazol-5-yl)-6-(difluoromethyl)-2-(trifluoromethyl)pyrazolo[1,5-a]pyridine]	10.80
Cc1cc(-c2c(-c3ccncc3)ccc3nc(C(F)(F)F)nn23)cc2cn[nH]c12 [Example 59, 5-(7-Methyl-1H-indazol-5-yl)-6-(pyridin-4-yl)-2-(trifluoromethyl)-[1,2,4]triazolo[1,5-a]pyridine]	8.20
Cc1nc2ccc(-c3ccc(F)cc3)c(-c3cc(C)c4[nH]ncc4c3)n2n1 [Example 60, 6-(4-Fluorophenyl)-2-methyl-5-(7-methyl-1H-indazol-5-yl)-[1,2,4]triazolo[1,5-a]pyridine]	8.90
CCc1nc2c(C)cc(C(F)(F)F)c(-c3cc4c(c(C(F)(F)F)c3)NC(=O)C4)n2n1 [Example 102, 5-(2-Ethyl-8-methyl-6-(trifluoromethyl)-[1,2,4]triazolo[1,5-a]pyridin-5-yl)-7-(trifluoromethyl)indolin-2-one]	8.80
O=C1Cc2cc(-c3c(C(F)(F)F)ccc4nc(C(F)(F)F)nn34)cc(Cl)c2N1 [Example 3, 5-(2,6-Bis(trifluoromethyl)-[1,2,4]triazolo[1,5-a]pyridin-5-yl)-7-chloroindolin-2-one]	9.60
Cc1cc(-c2c(C(F)(F)F)ccc3cc(C(C)C)nn23)cc2cn[nH]c12 [Example 74, 5-(2-Isopropyl-6-(trifluoromethyl)pyrazolo[1,5-a]pyridin-7-yl)-7-methyl-1H-indazole]	10.10
CCCc1nc2c(Cl)cc(C(F)(F)F)c(-c3cc(C)c4c(c3)CC(=O)N4)n2n1 [Example 98, 5-(8-Chloro-2-propyl-6-(trifluoromethyl)-[1,2,4]triazolo[1,5-a]pyridin-5-yl)-7-methylindolin-2-one]	9.10
Cc1cc(C(F)F)c(-c2cc(Cl)c3[nH]ncc3c2)n2nc(C(F)(F)F)nc12 [Example 77, 5-(7-Chloro-1H-indazol-5-yl)-6-(difluoromethyl)-8-methyl-2-(trifluoromethyl)-[1,2,4]triazolo[1,5-a]pyridine]	9.60
Cc1cc(-c2c(C(F)(F)F)ccc3cc(C4CC4)nn23)cc2cn[nH]c12 [Example 69, 5-(2-Cyclopropyl-6-(trifluoromethyl)pyrazolo[1,5-a]pyridin-7-yl)-7-methyl-1H-indazole]	10.30
O=C1Cc2cc(-c3c(C(F)(F)F)ccc4nc(C(F)F)nn34)cc(Cl)c2N1 [Example 9, 7-Chloro-5-(2-(difluoromethyl)-6-(trifluoromethyl)-[1,2,4]triazolo[1,5-a]pyridin-5-yl)indolin-2-one]	9.40
CCc1ccc2nc(C(F)(F)F)nn2c1-c1cc(C)c2[nH]ncc2c1 [Example 52, 6-Ethyl-5-(7-methyl-1H-indazol-5-yl)-2-(trifluoromethyl)-[1,2,4]triazolo[1,5-a]pyridine]	9.30
COc1ccc2nc(C(F)F)nn2c1-c1cc(Cl)c2[nH]ncc2c1 [Example 13, 5-(7-Chloro-1H-indazol-5-yl)-2-(difluoromethyl)-6-methoxy-[1,2,4]triazolo[1,5-a]pyridine]	8.30
CCc1cc(C(F)(F)F)c(-c2cc(C)c3c(c2)CC(=O)N3)n2nc(C3CC3)nc12 [Example 82, 5-(2-Cyclopropyl-8-ethyl-6-(trifluoromethyl)-[1,2,4]triazolo[1,5-a]pyridin-5-yl)-7-methylindolin-2-one]	9.50
COc1ccc2nc(C(F)(F)F)nn2c1-c1cc(C)c2[nH]ncc2c1 [Example 51, 6-Methoxy-5-(7-methyl-1H-indazol-5-yl)-2-(trifluoromethyl)-[1,2,4]triazolo[1,5-a]pyridine]	8.30
Cc1cc(-c2c(C(F)(F)F)ccc3nc(C(F)F)nn23)cc2cn[nH]c12 [Example 8, 5-(7-Methyl-1H-indazol-5-yl)-2-(difluoromethyl)-6-(trifluoromethyl)-[1,2,4]triazolo[1,5-a]pyridine]	9.40
CCc1nc2c(C)cc(C(F)(F)F)c(-c3cc(Cl)c4c(c3)CC(=O)N4)n2n1 [Example 100, 7-Chloro-5-(2-ethyl-8-methyl-6-(trifluoromethyl)-[1,2,4]triazolo[1,5-a]pyridin-5-yl)indolin-2-one]	9.20
Cc1nc2ccc(C(F)(F)F)c(-c3cc(Cl)c4c(c3)CC(=O)N4)n2n1 [Example 23, 7-Chloro-5-(2-methyl-6-(trifluoromethyl)-[1,2,4]triazolo[1,5-a]pyridin-5-yl)indolin-2-one]	8.00
CCc1nc2c(C)cc(C(F)(F)F)c(-c3cc(C(F)(F)F)c4[nH]ncc4c3)n2n1 [Example 101, 2-Ethyl-8-methyl-6-(trifluoromethyl)-5-(7-(trifluoromethyl)-1H-indazol-5-yl)-[1,2,4]triazolo[1,5-a]pyridine]	9.50

Structure (SMILES)	pIC50
COc1nc2ccc(C(F)(F)F)c(-c3cc(Cl)c4[nH]ncc4c3)n2n1 [Example 43, 5-(7-Chloro-1H-indazol-5-yl)-2-methoxy-6-(trifluoromethyl)-[1,2,4]triazolo[1,5-a]pyridine]	8.50
CCc1nc2c(F)cc(C(F)(F)F)c(-c3cc(Cl)c4[nH]ncc4c3)n2n1 [Example 31, 5-(7-Chloro-1H-indazol-5-yl)-2-ethyl-8-fluoro-6-(trifluoromethyl)-[1,2,4]triazolo[1,5-a]pyridine]	8.90
Cc1cc(-c2c(-c3ccc(F)cc3)ccc3nc(C(F)(F)F)nn23)cc2c1NC(=O)C2 [Example 57, 5-(6-(4-Fluorophenyl)-2-(trifluoromethyl)-[1,2,4]triazolo[1,5-a]pyridin-5-yl)-7-methylindolin-2-one]	10.20
FC(F)(F)c1nc2c(Cl)cc(C(F)(F)F)c(-c3cc(Cl)c4[nH]ncc4c3)n2n1 [Example 5, 8-Chloro-5-(7-chloro-1H-indazol-5-yl)-2,6-bis(trifluoromethyl)-[1,2,4]triazolo[1,5-a]pyridine]	9.50
Cc1cc(-c2c(C(F)(F)F)cc(F)c3nc(C4CC4)nn23)cc2cn[nH]c12 [Example 33, 2-Cyclopropyl-8-fluoro-5-(7-methyl-1H-indazol-5-yl)-6-(trifluoromethyl)-[1,2,4]triazolo[1,5-a]pyridine]	9.70
CCc1cc(C(F)(F)F)c(-c2cc(C)c3[nH]ncc3c2)n2nc(C(F)F)nc12 [Example 88, 2-(Difluoromethyl)-8-ethyl-5-(7-methyl-1H-indazol-5-yl)-6-(trifluoromethyl)-[1,2,4]triazolo[1,5-a]pyridine]	8.80
Cc1cc(-c2c(C(F)F)ccc3cc(C(F)(F)F)nn23)cc2c1NC(=O)C2 [Example 119, 5-[6-(Difluoromethyl)-2-(trifluoromethyl)pyrazolo[1,5-a]pyridin-7-yl]-7-methyl-indolin-2-one]	10.30
Cc1cc(C(F)(F)F)c(-c2cc(Cl)c3[nH]ncc3c2)n2nc(C(F)(F)F)nc12 [Example 6, 5-(7-Chloro-1H-indazol-5-yl)-8-methyl-2,6-bis(trifluoromethyl)-[1,2,4]triazolo[1,5-a]pyridine]	9.70
CCc1nc2ccc(-c3ccc(F)cc3)c(-c3cc(C)c4[nH]ncc4c3)n2n1 [Example 61, 2-Ethyl-6-(4-fluorophenyl)-5-(7-methyl-1H-indazol-5-yl)-[1,2,4]triazolo[1,5-a]pyridine]	9.70
Cc1cc(-c2c(C(F)(F)F)ccc3cc(C(F)(F)F)nn23)cc2cn[nH]c12 [Example 64, 5-(2,6-Bis(trifluoromethyl)pyrazolo[1,5-a]pyridin-7-yl)-7-methyl-1H-indazole]	10.80
Cc1cc(-c2c(C(F)(F)F)ccc3nc(C4CC4)nn23)cc2cn[nH]c12 [Example 39, 2-Cyclopropyl-5-(7-methyl-1H-indazol-5-yl)-6-(trifluoromethyl)-[1,2,4]triazolo[1,5-a]pyridine]	9.50
Cc1cc(-c2c(C(F)F)ccc3nc(C(F)(F)F)nn23)cc2cn[nH]c12 [Example 17, 6-(Difluoromethyl)-5-(7-methyl-1H-indazol-5-yl)-2-(trifluoromethyl)-[1,2,4]triazolo[1,5-a]pyridine]	9.80
Cc1cc(C(F)(F)F)c(-c2cc(C#N)c3c(c2)CC(=O)N3)n2nc(C(F)(F)F)nc12 [Example 108, 5-(8-Methyl-2,6-bis(trifluoromethyl)-[1,2,4]triazolo[1,5-a]pyridin-5-yl)-2-oxoindoline-7-carbonitrile]	8.40
CCc1cc(C(F)(F)F)c(-c2cc(C)c3[nH]ncc3c2)n2nc(C3CC3)nc12 [Example 81, 2-Cyclopropyl-8-ethyl-5-(7-methyl-1H-indazol-5-yl)-6-(trifluoromethyl)-[1,2,4]triazolo[1,5-a]pyridine]	9.30
CCc1cc(C(F)F)c(-c2cc(Cl)c3[nH]ncc3c2)n2nc(C(F)(F)F)nc12 [Example 91, 5-(7-Chloro-1H-indazol-5-yl)-6-(difluoromethyl)-8-ethyl-2-(trifluoromethyl)-[1,2,4]triazolo[1,5-a]pyridine]	9.30
CCCc1nc2c(C)cc(C(F)(F)F)c(-c3cc(Cl)c4[nH]ncc4c3)n2n1 [Example 83, 5-(7-Chloro-1H-indazol-5-yl)-8-methyl-2-propyl-6-(trifluoromethyl)-[1,2,4]triazolo[1,5-a]pyridine]	9.70
Cc1cc(-c2c(C(F)(F)F)ccc3nc(C(F)(F)F)nn23)cc2c1NC(=O)C2 [Example 4, 5-(2,6-Bis(trifluoromethyl)-[1,2,4]triazolo[1,5-a]pyridin-5-yl)-7-methylindolin-2-one]	9.30
Cc1cc(-c2c(C(F)(F)F)cc(C)c3nc(C(F)F)nn23)cc2cn[nH]c12 [Example 79, 2-(Difluoromethyl)-8-methyl-5-(7-methyl-1H-indazol-5-yl)-6-(trifluoromethyl)-[1,2,4]triazolo[1,5-a]pyridine]	9.40

Reference: patent US10087185B2 (Janssen Pharmaceutica NV, priority 2016, dated 2018)
